System: sodium monoiodoacetate (MIA)-induced model rats
Experiment: Analgesic effect on sodium monoiodoacetate-induced model rats (right hind limb weight load ratio)
Type: in vivo, rat
Conditions: day 24, positive control drug, 10 mg/kg subcutaneous, 1 hour after administration (Table 7)

| Compound | Percent improvement (%) |
| --- | --- |
| COc1cccc(C2(O)CCCCC2CN(C)C)c1 (stereo not shown) [Tramadol, reference compound] | 43 |

Same assay, conditions: day 24, test substance oral twice a day over 10 days, 3 hours after last administration, experiment with morphine as positive control (Table 8)

| Compound | Percent improvement (%) |
| --- | --- |
| CS(=O)(=O)c1ccc(C(F)(F)F)cc1NC(=O)Nc1cnc(Oc2ccc(-c3cc(Cl)cnc3N)cc2)nc1 [Example 15-104, 1-{2-[4-(2-amino-5-chloro-3-pyridinyl)phenoxy]-5-pyrimidinyl}-3-[2-(methylsulfonyl)-5-(trifluoromethyl)phenyl]urea] | 54 |
| Cc1cccc(-c2ccc(C(F)(F)F)cc2NC(=O)Nc2cnc(Oc3ccc(-c4cnn5ccc(N(C)C)nc45)cc3)nc2)c1 [Example 21-73, 1-(2-{4-[5-(dimethylamino)pyrazolo[1,5-a]pyrimidin-3-yl]phenoxy}-5-pyrimidinyl)-3-[3′-methyl-4-(trifluoromethyl)-2-biphenylyl]urea] | 62 |
| Nc1ncc(C(F)(F)F)cc1-c1ccc(Oc2ncc(NC(=O)Nc3cc(C(F)(F)F)ccc3-n3cc(Cl)cn3)cn2)cc1 [Example 15-87, 1-(2-{4-[2-amino-5-(trifluoromethyl)-3-pyridinyl]phenoxy}-5-pyrimidinyl)-3-[2-(4-chloro-1H-pyrazol-1-yl)-5-(trifluoromethyl)phenyl]urea] | 57 |
| Nc1ncc(Cl)cc1-c1ccc(Oc2ncc(NC(=O)Nc3ccc(C(F)(F)F)cc3C(F)(F)F)cn2)cc1 [Example 15-77, 1-{2-[4-(2-amino-5-chloro-3-pyridinyl)phenoxy]-5-pyrimidinyl}-3-[2,4-bis(trifluoromethyl)phenyl]urea] | 55 |
| Nc1ncc(Cl)cc1-c1ccc(Oc2ncc(NC(=O)Nc3cc(C(F)(F)F)ccc3-n3cc(Cl)cn3)cn2)cc1 [Example 15-63, 1-{2-[4-(2-amino-5-chloro-3-pyridinyl)phenoxy]-5-pyrimidinyl}-3-[2-(4-chloro-1H-pyrazol-1-yl)-5-(trifluoromethyl)phenyl]urea] | 53 |
| CN(C)c1ccn2ncc(-c3ccc(Oc4ncc(NC(=O)Nc5cc(C(F)(F)F)ccc5-c5cccnc5)cn4)cc3)c2n1 [Example 21-37, 1-(2-{4-[5-(dimethylamino)pyrazolo[1,5-a]pyrimidin-3-yl]phenoxy}-5-pyrimidinyl)-3-[2-(3-pyridinyl)-5-(trifluoromethyl)phenyl]urea] | 67 |
| CN(C)c1ccn2ncc(-c3ccc(Oc4ncc(NC(=O)Nc5cc(C(F)(F)F)ccc5-c5ccnn5C)cn4)cc3)c2n1 [Example 21-51, 1-(2-{4-[5-(dimethylamino)pyrazolo[1,5-a]pyrimidin-3-yl]phenoxy}-5-pyrimidinyl)-3-[2-(1-methyl-1H-pyrazol-5-yl)-5-(trifluoromethyl)phenyl]urea] | 68 |
| Nc1ncc(F)cc1-c1ccc(Oc2ncc(NC(=O)Nc3cc(C(F)(F)F)ccc3-c3cccnc3)cn2)cc1 [Example 14-6, 1-(2-(4-(2-amino-5-fluoropyridin-3-yl)phenoxy)pyrimidin-5-yl)-3-(2-(pyridin-3-yl)-5-(trifluoromethyl)phenyl)urea] | 53 |
| Nc1ncc(C(F)(F)F)cc1-c1ccc(Oc2ncc(NC(=O)Nc3cc(C(F)(F)F)ccc3-n3ccc(C(F)(F)F)n3)cn2)cc1 [Example 15-52, 1-(2-{4-[2-amino-5-(trifluoromethyl)-3-pyridinyl]phenoxy}-5-pyrimidinyl)-3-{5-(trifluoromethyl)-2-[3-(trifluoromethyl)-1H-pyrazol-1-yl]phenyl}urea] | 60 |
| Nc1ncc(Cl)cc1-c1ccc(Oc2ncc(NC(=O)Nc3cc(C(F)(F)F)ccc3-c3ccccc3)cn2)cc1 [Example 15-55, 1-{2-[4-(2-amino-5-chloro-3-pyridinyl)phenoxy]-5-pyrimidinyl}-3-[4-(trifluoromethyl)-2-biphenylyl]urea] | 62 |
| CS(=O)(=O)c1ccc(C(F)(F)F)cc1NC(=O)Nc1cnc(Oc2ccc(-c3cc(C(F)(F)F)cnc3N)cc2)nc1 [Example 15-98, 1-(2-{4-[2-amino-5-(trifluoromethyl)-3-pyridinyl]phenoxy}-5-pyrimidinyl)-3-[2-(methylsulfonyl)-5-(trifluoromethyl)phenyl]urea] | 57 |
| CN(C)c1ccn2ncc(-c3ccc(Oc4ncc(NC(=O)Nc5cc(C(F)(F)F)ccc5-c5ccccc5)cn4)cc3)c2n1 [Example 21-70, 1-(2-{4-[5-(dimethylamino)pyrazolo[1,5-a]pyrimidin-3-yl]phenoxy}-5-pyrimidinyl)-3-[4-(trifluoromethyl)-2-biphenylyl]urea] | 61 |

Same assay, conditions: day 24, test substance oral twice a day over 10 days, 3 hours after last administration, experiment with tramadol as positive control (Table 7)

| Compound | Percent improvement (%) |
| --- | --- |
| COc1ccn2ncc(-c3ccc(Oc4ncc(NC(=O)Nc5cc(C(F)(F)F)ccc5-c5cccnc5)cn4)cc3)c2n1 [Example 21-9, 1-(2-(4-(5-methoxypyrazolo[1,5-a]pyrimidin-3-yl)phenoxy)pyrimidin-5-yl)-3-(2-(pyridin-3-yl)-5-(trifluoromethyl)phenyl)urea] | 64 |
| Nc1ncc(Cl)cc1-c1ccc(Oc2ncc(NC(=O)Nc3cc(C(F)(F)F)ccc3-n3cccn3)cn2)cc1 [Example 7, 1-(2-(1H-pyrazol-1-yl)-5-(trifluoromethyl)phenyl)-3-(2-(4-(2-amino-5-chloropyridin-3-yl)phenoxy)pyrimidin-5-yl)urea] | 61 |
| Nc1ncc(Cl)cc1-c1ccc(Oc2ncc(NC(=O)Nc3ccc(C(F)(F)F)cc3Cl)cn2)cc1 [Example 15-6, 1-(2-(4-(2-amino-5-chloropyridin-3-yl)phenoxy)pyrimidin-5-yl)-3-(2-chloro-4-(trifluoromethyl)phenyl)urea] | 51 |
| Nc1ncc(F)cc1-c1ccc(Oc2ncc(NC(=O)Nc3cc(C(F)(F)F)ccc3-n3ccnn3)cn2)cc1 [Example 14-5, 1-(2-(1H-1,2,3-triazol-1-yl)-5-(trifluoromethyl)phenyl)-3-(2-(4-(2-amino-5-fluoropyridin-3-yl)phenoxy)pyrimidin-5-yl)urea] | 47 |
| O=C(Nc1cnc(Oc2ccc(-c3cnn4cccnc34)cc2)nc1)Nc1cc(C(F)(F)F)ccc1-c1cccnc1 [Example 21-13, 1-(2-(4-(pyrazolo[1,5-a]pyrimidin-3-yl)phenoxy)pyrimidin-5-yl)-3-(2-(pyridin-3-yl)-5-(trifluoromethyl)phenyl)urea] | 66 |
| Cc1cn(-c2ccc(C(F)(F)F)cc2NC(=O)Nc2cnc(Oc3ccc(-c4cc(Cl)cnc4N)cc3)nc2)nn1 [Example 8-1, 1-(2-(4-(2-amino-5-chloropyridin-3-yl)phenoxy)pyrimidin-5-yl)-3-(2-(4-methyl-1H-1,2,3-triazol-1-yl)-5-(trifluoromethyl)phenyl)urea] | 60 |

Source: patent US9763943B2, “Trk-inhibiting compound” (ONO PHARMACEUTICAL CO., LTD., priority 2013, dated 2017)
